Literature values as cited in patent US20240374543A1, “PHARMACEUTICAL COMPOSITIONS” (priority 2021, published 2024).

Details: determined by the FDA

## N-Nitrosodimethylamine [NDMA]
  acceptable daily intake limit of NDMA: 96 nanogram per day
